This note sets out measurements from patent publication US12637703B2, “Compositions and methods for detection of oxidizable analytes” (President and Fellows of Harvard College, priority 2019, dated 2026).

Series [1] in a line: Fluorescence of dyes with hydrogen peroxide in HRP-free buffer. The conditions noted are these: 400-fold molar excess of hydrogen peroxide. In kind it is physicochemical. The procedure: NIR dyes were dissolved in water (sulfo-cyanine dyes, Lumiprobe, Hannover, Germany, and all investigated IRDyes except for IRDye 800RS, LI-COR Biosciences, Lincoln, NE) or dimethyl sulfoxide (Sigma Aldrich, St. Louis, MO; cyanine dyes, Lumiprobe, and IRDye 80016, LI-COR Biosciences). 10 μL of dye solution ([…] Peroxide/Peroxidase Assay Kit A22188, Thermo Fisher Scientific, Waltham, MA) in sodium chloride-containing phosphate buffer (Sigma Aldrich) 50 mM at pH 7.5 at 300 mOsmol/kg and protected from light. After 10 min at room temperature, the fluorescence intensity was determined by a plate reader (BioTek NEO2, BioTek, Winooski, VT) at the fluorescence excitation and emission wavelength provided by the manufacturer.

Series [2] has as its target T1, horseradish peroxidase (HRP) (Armoracia rusticana, UniProt P00433).
T1 construct: purchased Thermo Fisher Scientific A22188
T1 sequence (P00433 31-338): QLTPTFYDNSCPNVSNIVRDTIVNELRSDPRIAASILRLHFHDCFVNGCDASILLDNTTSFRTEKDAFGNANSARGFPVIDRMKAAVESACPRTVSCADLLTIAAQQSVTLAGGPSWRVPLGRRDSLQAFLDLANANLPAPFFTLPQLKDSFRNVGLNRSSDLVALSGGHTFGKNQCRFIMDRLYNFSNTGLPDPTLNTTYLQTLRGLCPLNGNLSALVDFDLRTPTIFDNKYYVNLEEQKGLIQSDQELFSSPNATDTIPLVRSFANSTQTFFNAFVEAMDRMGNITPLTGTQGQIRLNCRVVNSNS
Description: Screening of NIR dye library for HRP substrates (hydrogen peroxide-dependent loss of fluorescence). In kind it is biochemical. The conditions noted are these: for oxidation by HRP (loss of fluorescence) at different hydrogen peroxide concentrations: NIR dye 2.5 μM, HRP 105 mU/mL, phosphate buffer 50 mM pH 7.5; for oxidation by HRP (loss of fluorescence) at different hydrogen peroxide concentrations / hydrogen peroxide sensing profile (loss in relative fluorescence intensity): 10 min room temperature; for hydrogen peroxide sensing profile (loss in relative fluorescence intensity): different dye concentrations, HRP-containing buffer pH 7.5; for enzymatic oxidation by HRP, positive controls of the library screening: known HRP substrates, homovanillic acid 0.99 mM, HRP 0.10 U/mL, 10 min, Amplex Red 30 min, room temperature. The protocol:
FIGS. 2A-2C are related to screening of near-infrared (NIR) dye library for HRP substrates. NIR dye concentration: 2.5 μM; HRP concentration: 105 mU/mL; buffer composition: phosphate buffer 50 mM at pH 7.5; 10 min incubation time at room temperature. All results as means+SD (n=3).
FIG. 2E is a graph showing the relative fluorescence intensity of a homovanillic acid-containing solution in the presence of hydrogen peroxide and HRP, therefore evaluating hydrogen peroxide sensing with homovanillic acid (a known substrate of HRP) and HRP. HRP catalyzes the dimerization of homovanillic acid to a fluorescent product in the presence of hydrogen peroxide. HRP concentration: 0.10 U/mL; homovanillic acid: 0.99 mM; λex 312 nm; λem 430 nm; incubation time 10 min at room temperature. All results as mean±SD (n=3).
FIG. 2F is a graph showing the relative fluorescence intensity of an Amplex Red®-containing solution in the presence of hydrogen peroxide and HRP, therefore evaluating hydrogen peroxide sensing with Amplex Red® (a known substrate of HRP) and HRP. HRP catalyzes the oxidation of Amplex Red® to the fluorescent product resorufin in the presence of hydrogen peroxide. Excitation/emission wavelengths: λex 530 nm; λem 590 nm; incubation time 30 min at room temperature. Assay conducted in accordance to manufacturer's instructions. All results as mean±SD (n=3).
FIGS. 3B-3E are related to hydrogen peroxide sensing using HRP-mediated S7 oxidation. NIR dye concentration unless stated: 10 μM (FIG. 3C), 7.5 μM (FIG. 3D); HRP concentration: 105 mU/mL (FIG. 3B); buffer composition: phosphate buffer 50 mM at pH 7.5; 10 (FIGS. 3B, 3D) or 30 min (FIG. 3E) incubation time at room temperature. […] All results as means+SD (n=3).
NIR dyes were dissolved in water (sulfo-cyanine dyes, Lumiprobe, Hannover, Germany, and all investigated IRDyes except for IRDye 800RS, LI-COR Biosciences, Lincoln, NE) or dimethyl sulfoxide (Sigma Aldrich, St. Louis, MO; cyanine dyes, Lumiprobe, and IRDye 80016, LI-COR Biosciences). 10 μL of dye solution (final 2.5 μM) were added to 100 uL of HRP solution (final 105 mU/mL) and hydrogen peroxide standards (both from Amplex™ Red Hydrogen Peroxide/Peroxidase Assay Kit A22188, Thermo Fisher Scientific, Waltham, MA) in sodium chloride-containing phosphate buffer (Sigma Aldrich) 50 mM at pH 7.5 at 300 mOsmol/kg and protected from light. After 10 min at room temperature, the fluorescence intensity was determined by a plate reader (BioTek NEO2, BioTek, Winooski, VT) at the fluorescence excitation and emission wavelength provided by the manufacturer.
To determine the absorbance spectra of S7, 10 μL of dye solution (final 7.5 μM) were added to 100 μL of HRP solution (final 105 mU/mL) and hydrogen peroxide standards in isotonic phosphate buffer 50 mM at pH 7.5. After 15 min, the absorbance spectra were recorded by a plate reader (BioTek NEO2).

A short description of series [3]: Superoxide testing (SOTS-1 as superoxide radical source). The conditions noted are these: 100-fold excess of superoxide radical (SOTS-1); 30 min room temperature; pH 7.5. The format is physicochemical. The procedure:
FIG. 3E is a graph showing the relative fluorescence intensity of several NIR dyes and the superoxide-sensitive dye DHE (positive control) at different concentrations of the superoxide radical source SOTS-1 (E).
Superoxide was generated in accordance with the literature. In brief, SOTS-1 (Cayman Chemicals, Ann Arbor, MI) was dissolved in dimethylformamide (Sigma Aldrich) and added to a near-infrared fluorescent dye-containing ([…]; DHE concentration 10 μM) isotonic phosphate buffer 50 mM at pH 7.5 ([…]) and protected from light. After 30 min at room temperature, the fluorescence intensity was determined by a plate reader (BioTek NEO2) at the fluorescence excitation and emission wavelength provided by the manufacturer.

As to sulfo-cyanine 7 [S7], the “fluorescence properties upon exposure to hydrogen peroxide without HRP” value in series [1] is on record as “preserved their fluorescence properties”. In series [2], the “oxidation by HRP (loss of fluorescence) at different hydrogen peroxide concentrations” value is “oxidized by HRP in a hydrogen peroxide concentration-dependent manner” and the “hydrogen peroxide sensing profile (loss in relative fluorescence intensity)” value is on record as “followed a sigmoid curve”. The “fluorescence emission in the presence of superoxide radical” value in series [3] is given as “preserved their fluorescence emission”.
For `CC(=O)N1c2ccc(O)cc2Oc2cc(O)ccc21` [Amplex Red®], the “enzymatic oxidation by HRP, positive controls of the library screening” value in series [2] is reported as “enzymatically oxidized in a hydrogen peroxide-dependent manner”.
`CC1(C)C(/C=C/C=C/C=C/C=C2\N(CCCCS(=O)(=O)O)c3ccc4ccccc4c3C2(C)C)=[N+](CCCCS(=O)(=O)[O-])c2ccc3ccccc3c21` [ICG, indocyanine green]: the “fluorescence properties upon exposure to hydrogen peroxide without HRP” value in series [1] is recorded as “preserved their fluorescence properties”. In series [2], the “oxidation by HRP (loss of fluorescence) at different hydrogen peroxide concentrations” value is listed as “oxidized by HRP in a hydrogen peroxide concentration-dependent manner” and the “hydrogen peroxide sensing profile (loss in relative fluorescence intensity)” value was “linear hydrogen peroxide sensing profile”.
Take `COc1cc(CC(=O)O)ccc1O` [homovanillic acid]: the “enzymatic oxidation by HRP, positive controls of the library screening” value in series [2] is “enzymatically oxidized in a hydrogen peroxide-dependent manner”.
For `CN1/C(=C/C=C/C=C/C2=[N+](CCCCCC(=O)O)c3ccc(S(=O)(=O)O)cc3C2(C)C)C(C)(C)c2cc(S(=O)(=O)O)ccc21` [sulfo-cyanine 5], the “fluorescence emission in the presence of superoxide radical” value in series [3] is “preserved their fluorescence emission”.
